Source: patent publication US20240315219A1, “ANIMAL MODEL FOR DISEASES ASSOCIATED WITH ABSENCE OR REDUCTION OF SOCIAL DOMINANCE, AND PHARMACEUTICAL COMPOSITION FOR PREVENTING OR TREATING DISEASES” (ADEL, Inc., priority 2021, published 2024)

Tests used:
[1] = test system: CRTC3 KO mice; assay: Tube dominance test, CRTC3 KO mice housed with WT mice; assay type: in vivo, mouse
Experimental: (§1) The apparatus for the tube dominance test was made of a transparent plastic tube with a length of 30 cm and an inner diameter of 2.5 cm. To allow the mice to adapt to passing through the inside of the tube, the respective mice were trained to pass across the tube alternately on both sides for two or three consecutive days. During the training period, care was taken to ensure that the mice passed through the tube as naturally as possible without causing stress. This test was performed after identifying that all mice could freely pass through the tube without stress.
During the dominance test period, a total of 2 mice, one at each end of the tube, were placed to meet in the middle of the tube. In a case where one mouse pushed the other mouse out of the tube, one (1) winning point was earned. The test was repeated three times. […] For each test, win or loss was determined by winning points. […]
First, starting at 1 month of age, the CRTC3 KO mice and the WT mice were housed in one group and raised together for 2 months. […] To determine changes in ranking of the mice in the group, social dominance ranking was evaluated by a tube dominance test daily for 15 days starting at 3 months of age. The respective mice in the group were tested in turn, and dominance ranking of the mice in the group was determined based on their winning points. […]

[2] = test system: wild-type rats; assay: Brain fMRI, resting-state functional connectivity (rsFC) in wild-type rats; assay type: in vivo, rat; conditions: SD rats, vs PBS group
Experimental: To identify which regions of the brain are affected by administration of AREG-EGF, fMRI was performed on wild-type rats injected with AREG-EGF. The rats having received PBS as a control and the rats having received AREG-EGF were imaged with fMRI one month later, in which interaction signals between various regions in the brain were checked. Specifically, the rats, which are SD (Spraque Dawley) rat species, were eight, 5- to 6-week-old male rats purchased from Orient Bio. AREG-EGF was administered to the rats by intracerebroventricular injection (ICV) on Weeks 6 to 7 after the purchase, and fMRI imaging was performed 21 days after the administration. The fMRI imaging was performed in such a way that first imaging was performed on an anesthetized rat under normal conditions (pre-state), and then fMRI re-imaging was performed on the same rat by placing cotton soaked in the urine of another rat, which it had never encountered, so that the rat being imaged can sniff the cotton (post-state). For rodents, social responses such as social identification occur through urine marking done by the other individuals. Thus, urine from an unfamiliar rat was used to elicit social responses. For specific methods of administering AREG-EGF and performing MRI analysis, see Experimental Examples 2.1 and 3. […]

[3] = test system: C57BL/6 mice; assay: Tube dominance test, lowest-ranked mouse in C57BL/6 mouse group; assay type: in vivo; conditions: lowest-ranked C57BL/6 mouse, intracerebroventricular via osmotic pump
Experimental: as §1
During the dominance test period, a total of 2 mice, one at each end of the tube, were placed to meet in the middle of the tube. In a case where one mouse pushed the other mouse out of the tube, one (1) winning point was earned. The test was repeated three times. For example, in a case where one mouse earned 2 or 3 winning points, the mouse was considered a winner and the other mouse was considered a loser. For the mice housed in the same cage, the tube test was performed on three mice in turn to determine social dominance ranking. For example, for mouse no. 1, the tube test was performed with mouse nos. 2 and 3. In a case where mouse no. 1 wins both mice, it is ranked first. Meanwhile, in a case where mouse no. 2 loses to mouse no. 1 and wins mouse no. 3, it is ranked second. In the two tests, mouse no. 3 is ranked third since it loses to both mice. For each test, win or loss was determined by winning points.
First, starting at 1 month of age, the CRTC3 KO mice and the WT mice were housed in one group and raised together for 2 months. This allowed social ranking to be naturally formed among the mice in the same group. To determine changes in ranking of the mice in the group, social dominance ranking was evaluated by a tube dominance test daily for 15 days starting at 3 months of age. The respective mice in the group were tested in turn, and dominance ranking of the mice in the group was determined based on their winning points. […]

| Substance | cages in which changes (increase) in social dominance ranking were observed after administration ([1]; CRTC3 KO mice with low ranking, housed with WT mice, intracerebroventricular via osmotic pump) [%] | winning points after vs before administration ([1]; CRTC3 KO mice, ICV osmotic pump) | rsFC between PFC and PC (average z-transformed correlation coefficient) ([2]; ICV osmotic pump, fMRI 21 days after) | rsFC seed-correlation spatial map, seed Cg1/2 (24b′/24a′) ([2]; ICV) | cages in which ranking of the lowest-ranked mouse increased after administration [3] [%] |
| --- | --- | --- | --- | --- | --- |
| AREG-EGF: Peptide of the EGF domain of amphiregulin, SEQ ID NO: 13, from Peptron (KKNPCNAEFQNFCIHGECKYIEHLEAVTCKCQQEYFGERCGEK; AREG-EGF Peptide) | 50 | changes in winning points and increases in tube test ranking | significantly high activity | significantly enhanced region was observed in PC | 80 |
| AREG-HB: Peptide of the heparin-binding domain of amphiregulin, SEQ ID NO: 14, from Peptron; control (SVRVEQVVKPPQNKTESENTSDKPKRKKKGGKNGKNRRNRK; AREG-HB Peptide) [reference compound] |  |  |  |  | 10 |
| mEGF: Recombinant mouse EGF from R&D Systems, SEQ ID NO: 12; control (NSYPGCPSSYDGYCLNGGVCMHIESLDSYTCNCVIGYSGDRCQTRDLRWWELR; Mouse EGF Protein; listed as Mus musculus) [reference compound] |  |  |  |  | 0 |
